The structures appear in SMILES notation. Activity calls are given as the source filed them. The calls are words filed in the database; no cut-off is given here.

The target in test [1] is T1, Integrin alpha-V/beta-3 (Homo sapiens, UniProt P05106+P06756). The experiment in a line: Binding affinity to integrin alphavbeta3 receptor in human ECV304 cells by STD-NMR analysis. In kind it is cell-based. The conditions noted are these: ECV-304.
The target of test [2] is T1, Integrin alpha-V/beta-3. In words: Displacement of 125-I-echistatin from human placental integrin alphavbeta3 receptor incubated for 3 hrs by microplate scintillation counting analysis.

As to `N=C(N)NCCCc1cn(CC(=O)N[C@@H](CC(=O)O)c2ccccc2)nn1`, the outcome in test [1] was Active.

For `N=C(N)NCCCc1cn(CC(=O)N[C@@H](CC(=O)O)c2ccc(O)cc2)nn1`, the result in test [1] was Active. Turning to `O=C(O)C[C@H](NC(=O)Cn1cc(CCCNc2ccccn2)nn1)c1ccc(O)cc1`, in test [1], the outcome was Active. For the same compound, the IC50 (in general, the concentration that gives 50% inhibition) in test [2] stood at 221 nM.

For the compound `O=C(O)C[C@H](NC(=O)Cn1cc(CCCNc2ccccn2)nn1)c1ccccc1`, the result in test [1] was Active. Also, in test [2], the IC50H is 13 nM and the IC50L came to 900 nM. Regarding `O=C(O)C[C@H](NC(=O)Cn1cc(CCCNc2nc3ccccc3[nH]2)nn1)c1ccc(O)cc1`, the result in test [1] was Active. On to `O=C(O)C[C@H](NC(=O)Cn1cc(CCCNc2nc3ccccc3[nH]2)nn1)c1ccccc1`, for which the result in test [1] was Active. In test [2], this compound displayed an IC50H of 12 nM and an IC50L of 1120 nM.
